Reference: ChEMBL document CHEMBL5376005, “Gut Metabolite Indoxyl Sulfate Has Selective Deleterious and Anticancer Effect on Colon Cancer Cells” (J Med Chem, 2023)
Where a name gives a salt, the structure may show the parent alone. Active and inactive are the calls of the source. The rule behind the calls is not given here.

Columns and labels:
[1] = Toxicity in wild type BALB/c mouse assessed as inflammatory symptoms by measuring change in fecal consistency at 100 mM, ip measured after 12 weeks; type: organism-based; conditions: in vivo, 2016 h, 100000 µM
HT-29 [2] = assay: Cytotoxicity against human HT-29 cells assessed as cell viability at 10 mM measured after 48 hrs by MTT assay (reference value: 100%); type: functional; conditions: HT-29, 48 h, read-out: Activity
HCT-116 [3] = assay: Induction of ROS production in human HCT-116 cells incubated for 48 hrs by DHE staining based analysis; type: functional, cell-based
[4] = Toxicity in wild type BALB/c mouse assessed as histological change in colon at 100 mM, REC measured after 12 weeks by H and E staining based light microscopic analysis; type: tissue-based; conditions: in vivo, other, 2016 h, 100000 µM
[5] = Toxicity in wild type BALB/c mouse assessed as inflammatory symptoms by measuring change in IL-17 level at 100 mM, REC measured for 0 to 3 months by ELISA; conditions: in vivo, other, 100000 µM, time 0-3 months
HT-29 [6] = assay: Cytotoxicity against human HT-29 cells assessed as cell viability at 10 mM measured after 24 hrs by MTT assay (reference value: 100%); type: functional; conditions: HT-29, 24 h, read-out: Activity
HCT-116 [7] = assay: Induction of DNA damage in human HCT-116 cells by comet assay; type: functional, cell-based
HT-29 [8] = assay: Cytotoxicity against human HT-29 cells assessed as reduction in cell viability at 0.01 to 10 mM by CellTiter-Glo luminescent cell viability assay; type: functional, cell-based; conditions: dose 0.01-10 mM, time 48-72 hrs, TDE = time-dependent effect
Cell membrane [9] = assay: Induction of membrane integrity loss in human HT-29 cells assessed as LDH release in supernatant at 10 mM incubated for 48 hrs by absorbance based assay relative to control; type: subcellular
HCT-116 [10] = assay: Cytotoxicity against human HCT-116 cells assessed as reduction in colony formation pretreated for 48 hrs and further incubated for 10 days with media replacement for every alternate day; type: functional, cell-based; conditions: dose 1.25-10 mM
HT-29 [11] = assay: Induction of cell cycle arrest in human HT-29 cells assessed as increase in proportion of cells at G2/M phase at 5 mM incubated for 48 hrs by RNase A/Triton X-100/PI staining based flow cytometry analysis relative to control; type: functional
HCT-116 [12] = assay: Induction of morphological changes in human HCT-116 cells assessed as reduction in cell number at 1.25 to 10 mM incubated for 24 to 72 hrs by bright field microscopy analysis; type: functional, cell-based; conditions: dose 1.25-10 mM, time 24-72 hrs
HT-29 [13] = assay: Induction of cell cycle arrest in human HT-29 cells assessed as increase in proportion of cells at G2/M phase incubated for 48 hrs by RNase A/Triton X-100/PI staining based flow cytometry analysis; type: functional; conditions: dose 1.25-10 mM
[14] = Toxicity in wild type BALB/c mouse assessed as change in intestinal length at 100 mM, REC measured after 12 weeks; type: tissue-based, Intestine; conditions: in vivo, other, 2016 h, 100000 µM
[15] = Toxicity in wild type BALB/c mouse assessed as reduction in body weight at 100 mM, ip measured after 12 weeks; type: organism-based; conditions: in vivo, 2016 h, 100000 µM
[16] = Toxicity in wild type BALB/c mouse assessed as change in spleen length at 100 mM, ip measured after 12 weeks; type: organism-based; conditions: in vivo, 2016 h, 100000 µM
HCT-116 [17] = assay: Induction of morphological changes in human HCT-116 cells assessed as loss of adhesion with free floating in medium at 10 mM incubated for 24 to 72 hrs by bright field microscopy analysis; type: functional, cell-based; conditions: time 24-72 hrs
[18] = Toxicity in wild type BALB/c mouse assessed as inflammatory symptoms by measuring change in fecal consistency at 100 mM, REC measured after 12 weeks; conditions: in vivo, other, 2016 h, 100000 µM
HT-29 [19] = assay: Cytotoxicity against human HT-29 cells assessed as reduction in cell viability measured after 24 to 72 hrs by MTT assay; type: functional, cell-based; conditions: dose 0.01-10 mM, time 24-72 hrs
[20] = Toxicity in wild type BALB/c mouse assessed as histological change in rectum at 100 mM, REC measured after 12 weeks by H and E staining based light microscopic analysis; conditions: in vivo, other, 2016 h, 100000 µM
Cell membrane [21] = assay: Induction of membrane integrity loss in human HCT-116 cells assessed as increase in LDH release in supernatant incubated for 48 hrs by absorbance based assay; type: subcellular; conditions: dose 1.25-10 mM
HCT-116 [22] = assay: Cytotoxicity against human HCT-116 cells assessed as reduction in cell viability measured after 24 to 72 hrs by MTT assay; type: functional, cell-based; conditions: dose 0.01-10 mM, time 24-72 hrs
HCT-116 [23] = assay: Induction of cell cycle arrest in human HCT-116 cells assessed as increase in proportion of cells at G2/M phase at 10 mM incubated for 48 hrs by RNase A/Triton X-100/PI staining based flow cytometry analysis relative to control; type: functional
[24] = Toxicity in wild type BALB/c mouse assessed as inflammatory symptoms by measuring change in TNFalpha level at 100 mM, ip measured for 0 to 3 months by ELISA; type: organism-based; conditions: in vivo, 100000 µM, time 0-3 months
[25] = Toxicity in wild type BALB/c mouse assessed as reduction in body weight at 100 mM, REC measured after 12 weeks; conditions: in vivo, other, 2016 h, 100000 µM
HCT-116 [26] = assay: Cytotoxicity against human HCT-116 cells assessed as cell viability at 10 mM measured after 48 hrs by MTT assay (reference value: 100%); type: functional; conditions: HCT-116, 48 h, read-out: Activity
Cell membrane [27] = assay: Induction of membrane integrity loss in human HCT-116 cells assessed as LDH release in supernatant at 10 mM incubated for 48 hrs by absorbance based assay relative to control
HCT-116 [28] = assay: Cytotoxicity against human HCT-116 cells assessed as cell viability at 10 mM measured after 72 hrs by MTT assay (reference value: 100%); type: functional; conditions: HCT-116, 72 h, read-out: Activity
HCT-116 [29] = assay: Cytotoxicity against human HCT-116 cells assessed as reduction in cell viability measured after 48 to 72 hrs by CellTiter-Glo luminescent cell viability assay; type: functional, cell-based; conditions: dose 0.01-10 mM, time 48-72 hrs
HT-29 [30] = assay: Induction of DNA damage in human HT-29 cells by comet assay; type: functional, cell-based
HCT-116 [31] = assay: Cytotoxicity against human HCT-116 cells assessed as reduction in cell viability at 0.01 to 10 mM by MTT assay; type: functional, cell-based; conditions: dose 0.01-10 mM, time 24-72 hrs, TDE = time-dependent effect
HT-29 [32] = assay: Cytotoxicity against human HT-29 cells assessed as reduction in cell viability at 0.01 to 10 mM by MTT assay; type: functional, cell-based; conditions: dose 0.01-10 mM, time 24-72 hrs, TDE = time-dependent effect
[33] = Toxicity in wild type BALB/c mouse assessed as histological change in rectum at 100 mM, ip measured after 12 weeks by H and E staining based light microscopic analysis; type: organism-based; conditions: in vivo, 2016 h, 100000 µM

Activity (Cell membrane [9]): 85% | Activity (Cell membrane [21]): Dose-Dependent Effect | Activity (Cell membrane [27]): 86%
Compound: O=S(=O)(O)Oc1c[nH]c2ccccc12 [INDOXYL SULFATE]
Activity [1]: Non-Toxic | viability at 10000 µM (HT-29 [2]): 30% | Activity (HCT-116 [3]): inactive | Activity [4]: Non-Toxic | Activity [5]: Non-Toxic | viability at 10000 µM (HT-29 [6]): 41% | Activity (HCT-116 [7]): inactive | Activity (HT-29 [8]): Tde | Activity (HCT-116 [10]): Dose-Dependent Effect | Activity (HT-29 [11]): 14.2% | Activity (HCT-116 [12]): Active | Activity (HT-29 [13]): Dose-Dependent Effect | Activity [14]: Non-Toxic | Activity [15]: Non-Toxic | Activity [16]: Non-Toxic | Activity (HCT-116 [17]): Active | Activity [18]: Non-Toxic | Activity (HT-29 [19]): Dose-Dependent Effect | Activity [20]: Non-Toxic | Activity (HCT-116 [22]): Dose-Dependent Effect | Activity (HCT-116 [23]): 22.7% | Activity [24]: Non-Toxic | Activity [25]: Non-Toxic | viability at 10000 µM (HCT-116 [26]): 7% | viability at 10000 µM (HCT-116 [28]): 4% | Activity (HCT-116 [29]): Dose-Dependent Effect | Activity (HT-29 [30]): inactive | Activity (HCT-116 [31]): Tde | Activity (HT-29 [32]): Tde | Activity [33]: Non-Toxic
